What was measured:
[1] = test system: rice (Oryza sativa); test: Test B flooded paddy test, rice; settings: Oryza sativa, read-out: Plant response rating, Rice (0 to 100 scale, 0 is no effect, 100 is complete control)
[2] = test system: ryegrass, Italian (Italian ryegrass, Lolium multiflorum); test: Test A postemergence, ryegrass, Italian; format: in vivo; settings: Lolium multiflorum, post-emergence, 240 h, 0 to 100 scale (0 no effect, 100 complete control), read-out: Plant response rating, Ryegrass, Italian; for pest or weed control at 31 g/ha: 31 g ai/ha; for pest or weed control at 125 g/ha: 125 g ai/ha
[3] = test system: barnyardgrass (Echinochloa crus-galli); test: Test A preemergence, barnyardgrass; format: in vivo; settings: Echinochloa crus-galli, pre-emergence, 240 h, 0 to 100 scale (0 no effect, 100 complete control), read-out: Plant response rating, Barnyardgrass; for pest or weed control at 31 g/ha: 31 g ai/ha; for pest or weed control at 125 g/ha: 125 g ai/ha
[4] = test system: barnyardgrass (Echinochloa crus-galli); test: Test B flooded paddy test, barnyardgrass; settings: Echinochloa crus-galli, read-out: Plant response rating, Barnyardgrass (0 to 100 scale, 0 is no effect, 100 is complete control)
[5] = test system: blackgrass (Alopecurus myosuroides); test: Test A postemergence, blackgrass; format: in vivo; settings: Alopecurus myosuroides, post-emergence, 240 h, 0 to 100 scale (0 no effect, 100 complete control), read-out: Plant response rating, Blackgrass; for pest or weed control at 31 g/ha: 31 g ai/ha; for pest or weed control at 125 g/ha: 125 g ai/ha
[6] = test system: ducksalad (Heteranthera limosa); test: Test B flooded paddy test, ducksalad; settings: Heteranthera limosa, read-out: Plant response rating, Ducksalad (0 to 100 scale, 0 is no effect, 100 is complete control)
[7] = test system: pigweed (Amaranthus retroflexus); test: Test A postemergence, pigweed; format: in vivo; settings: Amaranthus retroflexus, post-emergence, 240 h, 0 to 100 scale (0 no effect, 100 complete control), read-out: Plant response rating, Pigweed; for pest or weed control at 31 g/ha: 31 g ai/ha; for pest or weed control at 125 g/ha: 125 g ai/ha
[8] = test system: corn (Zea mays); test: Test A postemergence, corn; format: in vivo; settings: Zea mays, post-emergence, 240 h, 0 to 100 scale (0 no effect, 100 complete control); for Corn plant response rating (crop injury, 0 = no effect, 100 = complete kill) at 31 g/ha: 31 g ai/ha; for Corn plant response rating (crop injury, 0 = no effect, 100 = complete kill) at 125 g/ha: 125 g ai/ha
[9] = test system: barnyardgrass (Echinochloa crus-galli); test: Test A postemergence, barnyardgrass; format: in vivo; settings: Echinochloa crus-galli, post-emergence, 240 h, 0 to 100 scale (0 no effect, 100 complete control), read-out: Plant response rating, Barnyardgrass; for pest or weed control at 31 g/ha: 31 g ai/ha; for pest or weed control at 125 g/ha: 125 g ai/ha
[10] = test system: foxtail, giant (giant foxtail, Setaria faberii); test: Test A preemergence, foxtail, giant; format: in vivo; settings: Setaria faberi, pre-emergence, 240 h, 0 to 100 scale (0 no effect, 100 complete control), read-out: Plant response rating, Foxtail, Giant; for pest or weed control at 31 g/ha: 31 g ai/ha; for pest or weed control at 125 g/ha: 125 g ai/ha
[11] = test system: kochia (Kochia scoparia); test: Test A preemergence, kochia; format: in vivo; settings: Bassia scoparia, pre-emergence, 240 h, 0 to 100 scale (0 no effect, 100 complete control), read-out: Plant response rating, Kochia; for pest or weed control at 31 g/ha: 31 g ai/ha; for pest or weed control at 125 g/ha: 125 g ai/ha
[12] = test system: wheat (Triticum aestivum); test: Test A postemergence, wheat; format: in vivo; settings: Triticum aestivum, post-emergence, 240 h, 0 to 100 scale (0 no effect, 100 complete control), read-out: Plant response rating, Wheat; for plant injury at 31 g/ha: 31 g ai/ha; for plant injury at 125 g/ha: 125 g ai/ha
[13] = test system: galium (catchweed bedstraw, Galium aparine); test: Test A postemergence, galium; format: in vivo; settings: Galium, post-emergence, 240 h, 0 to 100 scale (0 no effect, 100 complete control), read-out: Plant response rating, Galium; for pest or weed control at 31 g/ha: 31 g ai/ha; for pest or weed control at 125 g/ha: 125 g ai/ha
[14] = test system: ryegrass, Italian (Italian ryegrass, Lolium multiflorum); test: Test A preemergence, ryegrass, Italian; format: in vivo; settings: Lolium multiflorum, pre-emergence, 240 h, 0 to 100 scale (0 no effect, 100 complete control), read-out: Plant response rating, Ryegrass, Italian; for pest or weed control at 31 g/ha: 31 g ai/ha; for pest or weed control at 125 g/ha: 125 g ai/ha
[15] = test system: kochia (Kochia scoparia); test: Test A postemergence, kochia; format: in vivo; settings: Bassia scoparia, post-emergence, 240 h, 0 to 100 scale (0 no effect, 100 complete control), read-out: Plant response rating, Kochia; for pest or weed control at 31 g/ha: 31 g ai/ha; for pest or weed control at 125 g/ha: 125 g ai/ha
[16] = test system: ragweed (common ragweed, Ambrosia elatior); test: Test A preemergence, ragweed; format: in vivo; settings: Ambrosia artemisiifolia, pre-emergence, 240 h, 0 to 100 scale (0 no effect, 100 complete control), read-out: Plant response rating, Ragweed; for pest or weed control at 31 g/ha: 31 g ai/ha; for pest or weed control at 125 g/ha: 125 g ai/ha
[17] = test system: ragweed (common ragweed, Ambrosia elatior); test: Test A postemergence, ragweed; format: in vivo; settings: Ambrosia artemisiifolia, post-emergence, 240 h, 0 to 100 scale (0 no effect, 100 complete control), read-out: Plant response rating, Ragweed; for pest or weed control at 31 g/ha: 31 g ai/ha; for pest or weed control at 125 g/ha: 125 g ai/ha
[18] = test system: pigweed (Amaranthus retroflexus); test: Test A preemergence, pigweed; format: in vivo; settings: Amaranthus retroflexus, pre-emergence, 240 h, 0 to 100 scale (0 no effect, 100 complete control), read-out: Plant response rating, Pigweed; for pest or weed control at 31 g/ha: 31 g ai/ha; for pest or weed control at 125 g/ha: 125 g ai/ha

| SMILES | plant injury at 250 g/ha [1] | pest or weed control at 31 g/ha [2] | pest or weed control at 125 g/ha [2] | pest or weed control at 31 g/ha [3] | pest or weed control at 125 g/ha [3] | pest or weed control at 250 g/ha [4] | pest or weed control at 31 g/ha [5] | pest or weed control at 125 g/ha [5] | pest or weed control at 250 g/ha [6] | pest or weed control at 31 g/ha [7] | pest or weed control at 125 g/ha [7] | Corn plant response rating (crop injury, 0 = no effect, 100 = complete kill) at 31 g/ha [8] | Corn plant response rating (crop injury, 0 = no effect, 100 = complete kill) at 125 g/ha [8] | pest or weed control at 31 g/ha [9] | pest or weed control at 125 g/ha [9] | pest or weed control at 31 g/ha [10] | pest or weed control at 125 g/ha [10] | pest or weed control at 31 g/ha [11] | pest or weed control at 125 g/ha [11] | plant injury at 31 g/ha [12] | further results |
| --- | --- | --- | --- | --- | --- | --- | --- | --- | --- | --- | --- | --- | --- | --- | --- | --- | --- | --- | --- | --- | --- |
| O=C1OC(CCCCC(F)(F)F)Cc2c(Oc3ncc(Cl)cn3)cccc21 (stereo not drawn) [Compound 31, 5-[(5-Chloro-2-pyrimidinyl)oxy]-3,4-dihydro-3-(5,5,5-trifluoropentyl)-1H-2-benzopyran-1-one] | 0% | 0% | 0% | 0% | 0% | 0% | 0% | 0% | 0% | 40% | 50% | 0% | 10% | 20% | 0% | 0% | 0% | 0% | 0% | 0% | plant injury at 125 g/ha [12]: 0%; pest or weed control at 31 g/ha [13]: 0%; pest or weed control at 125 g/ha [13]: 30%; pest or weed control at 31 g/ha [14]: 0%; pest or weed control at 125 g/ha [14]: 0%; pest or weed control at 31 g/ha [15]: 10%; pest or weed control at 125 g/ha [15]: 40%; pest or weed control at 31 g/ha [16]: 0%; pest or weed control at 125 g/ha [16]: 0%; pest or weed control at 31 g/ha [17]: 0%; pest or weed control at 125 g/ha [17]: 0%; pest or weed control at 31 g/ha [18]: 0%; pest or weed control at 125 g/ha [18]: 0% |
| FC(F)(F)CCC1OCCc2cccc(Oc3ncc(Cl)cn3)c21 (stereo not drawn) [Compound 32, 5-Chloro-2-[[3,4-dihydro-1-(3,3,3-trifluoropropyl)-1H-2-benzopyran-8-yl]oxy]pyrimidine] | 0% | 0% | 0% | 0% | 40% | 0% | 10% | 30% | 95% | 20% | 40% | 10% | 20% | 10% | 20% | 0% | 50% | 0% | 0% | 0% | plant injury at 125 g/ha [12]: 10%; pest or weed control at 31 g/ha [13]: 10%; pest or weed control at 125 g/ha [13]: 20%; pest or weed control at 31 g/ha [14]: 0%; pest or weed control at 125 g/ha [14]: 0%; pest or weed control at 31 g/ha [15]: 0%; pest or weed control at 125 g/ha [15]: 10%; pest or weed control at 31 g/ha [16]: 0%; pest or weed control at 125 g/ha [16]: 0%; pest or weed control at 31 g/ha [17]: 0%; pest or weed control at 125 g/ha [17]: 0%; pest or weed control at 31 g/ha [18]: 0%; pest or weed control at 125 g/ha [18]: 60% |
